This assay concerns Plasmodium falciparum. Briefly: GSK_TCMDC: Inhibition of Plasmodium falciparum 3D7 in whole erythrocytes, using parasite LDH activity as an index of growth. Type of assay: functional, organism-based. The following applies: Plasmodium falciparum, 3D7.
Compound `CCOc1cc(/C=N/Nc2nc3ccccc3[nH]2)ccc1OCc1ccc([N+](=O)[O-])cc1` came in with an XC50 of 995 nM.

Regarding `COc1ccc(CN(C)CCCc2ccc(NC(=O)c3cccc4c(O)c5ccccc5nc34)cc2)cc1OC`, the XC50 was 1370 nM. The result for `O=C(/C=C/c1cccc(C(F)(F)F)c1)NCCCCCN1CCC(c2c[nH]c3ccccc23)CC1` reads 836 nM. Compound `CCCN(CC1CC1)c1ncc(-c2ccccc2CNCc2ccccc2O)cn1` displayed an XC50 of 496 nM. The compound `CC(C)CCNc1nc(NCCc2ccccc2)c2cc(O)ccc2n1` registered an XC50 of 238 nM. The result for `Cc1ccc(NC(C)C(=O)Nc2ccc(C#N)cc2)cc1S(=O)(=O)N1CCCCC1` (configuration not stated) reads 545 nM. The result for `Cc1ccc(Cn2cnc(N3CC(C)NC(C)C3)cc2=O)cc1NC(=O)Nc1ccc(-c2ccccc2)cc1` (configuration not stated) reads 851 nM; that for `CC(C)(C)C(=O)Nc1ccccc1Oc1ccc(Cl)cc1`, 7.48 nM. To `CCn1c(-c2nonc2N)nc2c(-c3cccc(NC(=O)Nc4ccc(C(F)(F)F)cc4)c3)ncc(OCCCN)c21` belongs 1050 nM; to `Cc1ccc(CN2CCC(Oc3cccc(NC(=O)c4ccc(C(F)(F)F)cc4)c3)CC2)cc1`, 1020 nM. `CC(C)Sc1nc2c(c(=O)n1Cc1ccco1)C1(CCCCC1)Cc1ccccc1-2`: the XC50 amounted to 251 nM. `COc1ccc(Cn2c(N3CCN(S(=O)(=O)c4ccc(OC)cc4)CC3)nc3c2c(=O)n(CC2CC2)c(=O)n3CC2CC2)cc1`: the XC50 was determined as 892 nM. In the case of `CCc1c(CCNCCc2cccc(CCNCCc3ccc(OC)c(OC)c3CC)c2)ccc(OC)c1OC`, the XC50 came out at 361 nM.

In turn, `COc1cc2c(cc1C(F)(F)F)N(C(=O)Nc1cccc(-c3ccc(CN(C)C)cc3)c1)CC2` returned an XC50 of 710 nM. `CN(C)Cc1cccc(CNC(=O)c2sccc2OCc2ccc(Cl)cc2)c1` had an XC50 of 835 nM.

Turning to `N#Cc1cccc(NC(=O)c2ccc(S(=O)(=O)NCC3CCCN3CC3CCCCC3)cc2)c1` (configuration not stated), the XC50 is 1050 nM. As to `CC(C)Oc1ccc2ccccc2c1CNCCCCCCNCc1c(OC(C)C)ccc2ccccc12`, the XC50 is 612 nM. To `Nc1c2c(nc3ccc(C(=O)Nc4ccc(Br)cc4)cc13)CCCC2` belongs 149 nM; to `Nc1nc(N)c2c(ccc3c2ncn3Cc2ccccc2)n1`, 93.4 nM. To `Cc1[nH]c(C)c(-c2ccc(CCc3ccc(N)cc3)cc2)c(=O)c1Cl` belongs 98.5 nM; to `N#Cc1ccc(CN2CCC(Oc3ccc(NC(=O)c4ccccc4)cc3Cl)CC2)cc1`, 1260 nM. Turning to `COc1ccc(CNCc2ccc(-c3ccc(-c4nc5cc(C(F)(F)F)ccc5[nH]4)cc3)cc2)cc1`, the XC50 turned out to be 135 nM. In the case of `O=C(Nc1ccc(F)cc1)c1ccc(C(=O)NC2CCN(CC3CCCCC3)CC2)cc1`, the XC50 came out at 544 nM. For the compound `COc1cccc(NC(=O)c2cc(Br)cc(N3CCN(c4ccncc4)CC3)c2)c1`, the XC50 is 772 nM. Take `Cc1cccc(-n2c(Nc3ccc(C)c(Cl)c3)nc3ccc(S(=O)(=O)NC(C)C(C)C)cc32)c1` (configuration not stated): the XC50 stood at 648 nM.

Compound `COc1ccc(CNc2nc(NCc3ccc(C(F)(F)F)cc3)c3cc(OC)c(OC)cc3n2)cc1OC` had an XC50 of 210 nM. Turning to `CNCC(O)c1cc(Cl)c(Cl)cc1C` (configuration not stated), the XC50 came to 922 nM. The result for `c1ccc(Oc2ccc(Nc3ccnc4cc(-c5csc(CNCCN6CCOCC6)n5)ccc34)cc2)cc1` reads 708 nM; that for `O=C(NCCNc1nc(NCCNC(=O)Nc2ccccc2)c2ccc(=O)n(-c3c(F)cccc3F)c2n1)Nc1ccccc1`, 170 nM. To `O=C(NCc1ccc(C(F)(F)F)cc1)c1cccc(-c2nnc(-c3cccc(-c4cncnc4)c3)o2)c1` belongs 544 nM; to `Cc1cccc(C(=O)Nc2ccnc(N3CCC(N(C)Cc4ccc(C#N)cc4)CC3)c2)c1`, 912 nM; to `FC(F)(F)c1ccc(N2CCCN(Cc3cccc(-c4ccccc4CNCc4ccc5c(c4)OCO5)c3)CC2)nc1`, 1190 nM.

Compound `Cc1ccccc1CCNC(=O)c1ccc(N2CCN(c3ccncc3)CC2)nc1` registered an XC50 of 1390 nM. On to `CCNc1cc(C(=O)N[C@@H](Cc2ccccc2)[C@H](O)CNCc2cccc(-c3cncnc3)c2)cc(N2CCCC2=O)c1`, for which the XC50 was 663 nM. `Cc1cccc(Nc2c(-c3cc(Br)ccc3O)nc3ncccn23)c1`: the XC50 amounted to 206 nM. To `COc1ccc(C2CC(=O)C3=C(C2)NC(C)=C(C(=O)OC(C)C)C3c2cccc(O)c2)cc1OC` (configuration not stated) belongs 785 nM; to `N=C(N)c1ccc2[nH]c(SCc3ccccc3)nc2c1`, 687 nM. In the case of `Fc1ccccc1C=NN=c1cc[nH]c2ccccc12`, the XC50 was found to be 894 nM. The compound `CC[C@H]1CN2CC[C@@H]1C[C@H]2[C@H](O)c1cc(N2CCC(N3CCCCC3)CC2)nc2ccc(OC)cc12` returned an XC50 of 267 nM. The result for `CN(C)CCOc1cc(NC(=O)c2ccc(-c3ccc(Cl)cc3Cl)cc2)ccc1-c1ccccc1` reads 906 nM; that for `CS(=O)(=O)Cc1ccc(Nc2nccc(-c3c(-c4cccc(C(=O)Nc5c(F)cccc5F)c4)nn4ccccc34)n2)cc1`, 532 nM; that for `CN(C)c1ccc(-c2ccc(C(=O)NC3CCN(Cc4cccc(C(F)(F)F)c4)CC3)s2)cc1`, 985 nM. Regarding `CCc1cc(OC)c(C(=O)NC2CCN(C[C@H](O)c3ccnc4ccc(OC)cc34)CC2)cc1Br`, the XC50 was found to be 815 nM.

`Oc1ccc2nc(NCCCc3ccccc3)nc(NCCc3ccccc3)c2c1`: the XC50 is 289 nM. With `CC(C)COc1ccc(Cl)cc1Cc1nc(-c2nc3ccc(CN4CCCCC4)cc3[nH]2)co1`, the XC50 was determined as 738 nM. To `COCCNCc1ccc(-c2ccc(CN(C(=O)Nc3ccccc3)C3CCN(Cc4ccccc4)CC3)cc2)cc1` belongs 746 nM. Compound `Cc1ccccc1C1CCN(C2CCC(NC(=O)C3=Cc4ccccc4OC3)CC2)CC1` (configuration not stated) had an XC50 of 935 nM.

Compound `COc1ccc(NC(=O)/C=C/c2ccccc2Cl)cc1OCCN1CCC(N2CCCCC2)CC1` came in with an XC50 of 901 nM. The result for `CS(=O)(=O)CCNCc1ccc(-c2ccc3c(Nc4ccc(F)cc4Cl)ccnc3c2)o1` reads 744 nM; that for `COc1cccc(-c2nn(C)c3sc(C(=O)Nc4cccnc4)cc23)c1`, 948 nM; that for `Cc1ccc2[nH]c(C)cc(=NN=Cc3ccc(Cl)cc3)c2c1`, 992 nM. On to `Oc1ccc(Br)cc1-c1nc2ccc(Cl)cc2nc1-c1cc(Br)ccc1O`, for which the XC50 stood at 789 nM. Regarding `CN1CCN(c2ccc(Nc3ncc(Cl)c(Nc4cccnc4C(N)=O)n3)cc2)CC1`, the XC50 turned out to be 153 nM. `OC1CCCN(Cc2ccc(-c3ccc(-c4nc5cc(F)ccc5[nH]4)cc3)cc2)C1` (configuration not stated): the XC50 was determined as 854 nM. `Cc1[nH]c2ccccc2c1C(=O)C(C)Sc1nnc(-c2ccccc2F)o1` (configuration not stated) gave an XC50 of 691 nM. `Cc1ccc(O)cc1Nc1c(C(N)=O)cnc2ccc(-c3cncs3)cc12` displayed an XC50 of 670 nM. For the compound `COc1cc2nc(N3CCC(CNC(=O)c4cc(Br)c(Br)s4)CC3)nc(N)c2cc1OC`, the XC50 came to 707 nM.

For the compound `CCOc1cc2ncnc(Nc3ccc(OCc4ccccc4OC)c(OC)c3)c2cc1OCC`, the XC50 was determined as 879 nM. Consider `CC(ON1C(N)=NC(N)=NC1(C)C)c1ccccc1` (configuration not stated), for which the XC50 was 10.9 nM.

The compound `O=C(NCCN1CCC(c2ncc(-c3ccccc3)o2)CC1)c1ccc(NC(=O)c2ccc(Cl)cc2)cc1` returned an XC50 of 244 nM. Regarding `Cc1cc(N)nc2ccc(-c3ccc(CCN)cc3)cc12`, the XC50 was found to be 621 nM.

`c1cc2[nH]c(CCCCCc3nc4cc(C5=N[C@@H]6CCCC[C@@H]6N5)ccc4[nH]3)nc2cc1C1=N[C@@H]2CCCC[C@@H]2N1` had an XC50 of 199 nM.

In turn, `C=CCn1c(C)cc(C(=O)COc2ccc(S(=O)(=O)N3CCOCC3)cc2[N+](=O)[O-])c1C` showed an XC50 of 1110 nM.

For the compound `CCOC(=O)C(NC(=O)Cc1ccccc1)C(C)C` (configuration not stated), the XC50 was determined as 295 nM. `O=C(NC1CC1)c1cnc(N2CCC(OCc3ccccc3)CC2)c(Cl)c1` displayed an XC50 of 1400 nM.

On to `CCN(CC)CCCC(C)Nc1c2cc(OC)ccc2nc2cc(Cl)c([N+](=O)[O-])cc12` (configuration not stated), for which the XC50 came to 787 nM. In turn, `Cc1ccc(F)cc1-c1cc(N2CCCN(C(=O)c3ccc(Br)o3)CC2)ncn1` yielded an XC50 of 1430 nM. `Cc1ccc(NS(=O)(=O)c2ccc(-c3ccccc3)cc2)c(Cn2cnc(N3CCCNCC3)cc2=O)c1` showed an XC50 of 859 nM.

With `CCn1ccc2c3c(N)nc(N)nc3ccc21`, the XC50 came to 313 nM. For the compound `COc1cc(C=CC(=O)N2CCC(CCN3CCC(c4c[nH]c5ccccc45)CC3)CC2)cc(OC)c1`, the XC50 worked out at 909 nM. Compound `O=C(Nc1ccc(Cn2ncc(N3CCCNCC3)c(Cl)c2=O)cc1)Nc1ccc(SC(F)(F)F)cc1` gave an XC50 of 529 nM. As to `O=C(CSc1nc2ccccc2c(=O)n1CC1CCCO1)Nc1cc(C(F)(F)F)ccc1Cl` (configuration not stated), the XC50 was determined as 229 nM.

On to `Cc1ccc2c(C3=CCN(CCCCC4(C)C(=O)Nc5ccccc54)CC3)c(C)[nH]c2c1` (configuration not stated), for which the XC50 was determined as 374 nM.

Compound `CC(C)CNc1nc(N)nc2ccc3c(ccn3CC(C)C)c12` yielded an XC50 of 649 nM. Consider `Cc1[nH]c2ccccc2c(=O)c1Br`, for which the XC50 came to 843 nM. The compound `O=c1cc(NCCCNCc2cc(Cl)cc(Cl)c2OCc2ccccc2)[nH]c2ccccc12` returned an XC50 of 1030 nM. As for `O=C(Nc1ccc(F)cc1)NC1CCN(c2ccnc3ccccc23)C1` (configuration not stated), the XC50 stood at 873 nM. `COc1ccc(C23Oc4cc(OC)cc(OC)c4C2(O)C2(CC3c3ccccc3)SCCCS2)cc1` (configuration not stated) gave an XC50 of 124 nM. As for `CCCCCn1c(Sc2ccc(C#N)c([N+](=O)[O-])c2)nnc1-c1cccs1`, the XC50 came out at 777 nM.

For `CN1CCCN(Cc2cccc(-c3ccc(NC(=O)c4ccc(Cl)cc4)cc3)c2)CC1`, the XC50 turned out to be 720 nM.

`COc1cccc(C(NC(=O)c2ccccc2)c2ccc3cccnc3c2O)c1` (configuration not stated): the XC50 turned out to be 1080 nM. Consider `Nc1ccn([C@@H]2O[C@H](COC(c3ccccc3)(c3ccccc3)c3ccccc3)[C@@H](O)[C@@H]2O)c(=O)n1`, for which the XC50 was determined as 834 nM. `Cc1ccc(C(O)CNc2ccnc(Nc3cccc(-c4csc(C)n4)c3)n2)cc1` (configuration not stated) yielded an XC50 of 826 nM. `COc1ccc2nccc([C@@H](O)CN3CCC(NCCOc4c(C)cccc4F)CC3)c2c1` displayed an XC50 of 347 nM.

`CC1Cc2ccccc2N1S(=O)(=O)c1cccc(C(=O)Nc2nc(-c3ccccn3)cs2)c1` (configuration not stated): the XC50 amounted to 1320 nM. For `Cc1cccc2nc(-c3ccc(-c4cccc(CN5CCC(CCN6CCCCC6)CC5)c4)s3)[nH]c12`, the XC50 came to 140 nM. Take `O=C(N[C@H]1CCN(Cc2ccc(OCCCN3CCCCC3)cc2)C1)c1ccc(Cl)c(Cl)c1`: the XC50 is 781 nM.

The values above are taken from ChEMBL document CHEMBL1157539, “Thousands of chemical starting points for antimalarial lead identification” (Nature, 2010).
